Test results: US9969742B2, “Imidazotriazinone compounds” (Ironwood Pharmaceuticals, Inc., priority 2012, dated 2018)

target: T1, PDE9A2 (Homo sapiens, UniProt O76083); test: Phosphodiesterase enzyme screening assay, PDE9A2; type: biochemical; conditions: Table 1; 10 concentrations; 4.0 μM cGMP substrate; 1 hour at R.T.; read-out: Band (PDE9A2 IC50)
T1 construct: purchased Reaction Biology Corporation, Malvern, Pa
Source text: Compounds of the invention were screened against PDE1A, PDE1B, PDE2A, PDE3A, PDE3B, PDE4A1A, PDE4B1, PDE4D3, PDE5A1, PDE6C, PDE7A, PDE8A1, PDE9A2, PDE10A2 AND PDE11A isoforms of the phosphodiesterase enzyme to determine activity and overall selectivity through comparative analysis. […] Where 8-methoxy-IBMX and Zaprinast were used as reference inhibitors.
The phosphodiesterase enzyme isoforms were obtained from a commercial retailer (Reaction Biology Corporation, Malvern, Pa.) for use in the instant screening assay.
The analysis was completed using the Caliper LabChip 3000 and a 12-sipper LabChip. LabChip assays are separations-based, meaning that the product and substrate are electrophoretically separated, thereby minimizing interferences and yielding the highest data quality available on any screening platform. […] High Z′ values, few false positives, few false negatives and analytical quality reproducibility are the reasons cited for the increasing reliance on the LabChip assays.
The off-chip incubation mobility-shift phosphodiesterase assay uses a microfluidic chip to measure the conversion of a fluorescent cyclic AMP substrate to a 5′-AMP product, or a cyclic GMP substrate to a 5′-GMP product. The reaction mixture, from a microtiter plate well, is introduced through a capillary sipper onto the chip, where the fluorescent substrate and product are separated by electrophoresis and detected via laser-induced fluorescence. […] The precision of microfluidics allows researchers to detect subtle interactions between drug candidates and therapeutic targets.
Reactions were carried out in 100 mM HEPES (pH 7.5), 5 mM MgCl2, 1 mM DTT, 0.003% Brij, 4.0 μM cGMP substrate. The reaction was started by addition of cGMP or cAMP and incubated for 1 hour at R.T. The reaction was terminated by the addition of stop buffer containing 100 mM HEPES (pH 7.5), 15 mM EDTA, 0.015% Brij-35, 5% DMSO. Cyclic AMP/GMP substrate and 5′-AMP/5′-GMP product were separated by charge using electrophoretic mobility shift. Product formed was compared to control wells to determine inhibition or enhancement of enzyme activity.
Data points were averages of quadruplicate wells and error bars represented the SEM for each point.

T1 sequence (O76083 1-533 isoform O76083-2): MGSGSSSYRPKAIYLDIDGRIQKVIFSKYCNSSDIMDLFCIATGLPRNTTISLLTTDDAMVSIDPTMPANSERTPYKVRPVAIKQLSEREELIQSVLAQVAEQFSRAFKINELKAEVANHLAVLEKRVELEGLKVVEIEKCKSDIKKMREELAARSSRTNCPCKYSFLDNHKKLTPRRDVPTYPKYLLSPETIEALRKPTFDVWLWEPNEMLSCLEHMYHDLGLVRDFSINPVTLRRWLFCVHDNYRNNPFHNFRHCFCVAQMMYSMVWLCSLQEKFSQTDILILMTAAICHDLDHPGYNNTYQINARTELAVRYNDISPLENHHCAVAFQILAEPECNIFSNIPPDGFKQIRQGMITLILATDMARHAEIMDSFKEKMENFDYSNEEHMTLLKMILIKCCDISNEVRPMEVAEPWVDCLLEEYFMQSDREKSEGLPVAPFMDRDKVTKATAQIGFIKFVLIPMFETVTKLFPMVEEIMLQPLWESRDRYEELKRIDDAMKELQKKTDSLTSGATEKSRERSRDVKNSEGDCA

`CC1CN(Cc2ncc3ccccc3n2)CC1c1nn2c(C3CCOCC3)ncc2c(=O)[nH]1` (single isomer, unassigned; (+)) [(+)-2-((3,4-trans)-4-methyl-1-(quinazolin-2-ylmethyl)pyrrolidin-3-yl)-7-(tetrahydro-2H-pyran-4-yl)imidazo[5,1-f][1,2,4]triazin-4(3H)-one] and `CC1CN(Cc2ccc3ccccc3n2)CC1c1nn2c(C3CCOCC3)ncc2c(=O)[nH]1` (single isomer, unassigned; (+)) [(+)-2-((3,4-trans)-4-methyl-1-(quinolin-2-ylmethyl)pyrrolidin-3-yl)-7-(tetrahydro-2H-pyran-4-yl)imidazo[5,1-f][1,2,4]triazin-4(3H)-one] cannot be ordered by IC50: < 1 µM for the first, < 1 µM for the second.

First: CC1CN(S(=O)(=O)c2ccccc2C#N)CC1c1nn2c(C3CCOCC3)ncc2c(=O)[nH]1 (single isomer, unassigned; (+)) [(+)-2-(((3,4-trans)-3-methyl-4-(4-oxo-7-(tetrahydro-2H-pyran-4-yl)-3,4-dihydroimidazo[5,1-f][1,2,4]triazin-2-yl)pyrrolidin-1-yl)sulfonyl)benzonitrile]
Second: CC1CN(S(=O)(=O)c2ccc(C#N)cc2)CC1c1nn2c(C3CCOCC3)ncc2c(=O)[nH]1 (single isomer, unassigned; (+)) [(+)-4-(((3,4-trans)-3-methyl-4-(4-oxo-7-(tetrahydro-2H-pyran-4-yl)-3,4-dihydroimidazo[5,1-f][1,2,4]triazin-2-yl)pyrrolidin-1-yl)sulfonyl)benzonitrile]
The IC50 of the first is lower: 1 to 10 µM for the first, > 10 µM for the second. The first is the more potent here.

`CC1CN(Cc2ccc(C#N)cc2)CC1c1nn2c(C3CCOCC3)ncc2c(=O)[nH]1` (single isomer, unassigned; (+)) [(+)-4-(((3,4-trans)-3-methyl-4-(4-oxo-7-(tetrahydro-2H-pyran-4-yl)-3,4-dihydroimidazo[5,1-f][1,2,4]triazin-2-yl)pyrrolidin-1-yl)methyl)benzonitrile] and `CC1CN(Cc2ccc(F)cc2)CC1c1nn2c(C3CCOCC3)ncc2c(=O)[nH]1` (single isomer, unassigned; (-)) [(−)-2-((3,4-trans)-1-(4-fluorobenzyl)-4-methylpyrrolidin-3-yl)-7-(tetrahydro-2H-pyran-4-yl)imidazo[5,1-f][1,2,4]triazin-4(3H)-one] cannot be ordered by IC50: < 1 µM for the first, < 1 µM for the second.

First: Cc1ccc(F)cc1-c1ncc2c(=O)[nH]c(C3CN(Cc4ncccn4)CC3C)nn12 (single isomer, unassigned; (+)) [(+)-7-(5-fluoro-2-methylphenyl)-2-((3,4-trans)-4-methyl-1-(pyrimidin-2-ylmethyl)pyrrolidin-3-yl)imidazo[1,5-f][1,2,4]triazin-4(3H)-one]
Second: Cc1ccc(F)cc1-c1ncc2c(=O)[nH]c(C3CN(Cc4ccccc4)CC3C)nn12 (single isomer, unassigned; (-)) [(−)-2-((3,4-trans)-1-benzyl-4-methylpyrrolidin-3-yl)-7-(5-fluoro-2-methylphenyl)imidazo[1,5-f][1,2,4]triazin-4(3H)-one]
The IC50 of the first is lower: < 1 µM for the first, 1 to 10 µM for the second.

First: CC1CN(Cc2ccccc2)CC1c1nn2c(C3CCN(C(=O)OC(C)(C)C)CC3)ncc2c(=O)[nH]1 (single isomer, unassigned; (+)) [(+)-tert-butyl 4-(2-((3,4-trans)-1-benzyl-4-methylpyrrolidin-3-yl)-4-oxo-3,4-dihydroimidazo[1,5-f][1,2,4]triazin-7-yl)piperidine-1-carboxylate]
Second: CC1CN(Cc2ccccc2)CC1c1nn2c(C3CCC(F)(F)CC3)ncc2c(=O)[nH]1 (single isomer, unassigned; (-)) [(−)-2-((3,4-trans)-1-benzyl-4-methylpyrrolidin-3-yl)-7-(4,4-difluorocyclohexyl)imidazo[5,1-f][1,2,4]triazin-4(3H)-one]
The IC50 of the first is higher: 1 to 10 µM for the first, < 1 µM for the second. The second is the more potent here.

`CC1CN(C(C)c2ccccc2)CC1c1nn2c(C3CCOCC3)ncc2c(=O)[nH]1` (single isomer, unassigned; (-)) [listing 1 of 2 here] and `CC1CN(C(=O)c2ccccc2)CC1c1nn2c(C3CCOCC3)ncc2c(=O)[nH]1` (single isomer, unassigned; (-)) [(−)-2-((3,4-trans)-1-benzoyl-4-methylpyrrolidin-3-yl)-7-(tetrahydro-2H-pyran-4-yl)imidazo[5,1-f][1,2,4]triazin-4(3H)-one] cannot be ordered by IC50: < 1 µM for the first, < 1 µM for the second.

`CC1CN(C(C)c2ccccc2)CC1c1nn2c(C3CCOCC3)ncc2c(=O)[nH]1` (single isomer, unassigned; (-)) [listing 2 of 2 here] and `CC1CN(Cc2ccccc2F)CC1c1nn2c(C3CCOCC3)ncc2c(=O)[nH]1` (single isomer, unassigned; (-)) [(−)-2-((3,4-trans)-1-(2-fluorobenzyl)-4-methylpyrrolidin-3-yl)-7-(tetrahydro-2H-pyran-4-yl)imidazo[5,1-f][1,2,4]triazin-4(3H)-one] cannot be ordered by IC50: < 1 µM for the first, < 1 µM for the second.

Compared with `CC1CN(Cc2ccccc2)CC1c1nn2c(C3CCOC3)ncc2c(=O)[nH]1` (single isomer, unassigned; (-)) [(−)-2-(1-(3,4-trans)-benzyl-4-methylpyrrolidin-3-yl)-7-(tetrahydrofuran-3-yl)imidazo[5,1-f][1,2,4]triazin-4(3H)-one], `COc1cccc(CN2CC(C)C(c3nn4c(C5CCOCC5)ncc4c(=O)[nH]3)C2)n1` (single isomer, unassigned; (-)) [(−)-2-((3,4-trans)-1-((6-methoxypyridin-2-yl)methyl)-4-methylpyrrolidin-3-yl)-7-(tetrahydro-2H-pyran-4-yl)imidazo[5,1-f][1,2,4]triazin-4(3H)-one] is lower in IC50: 1 to 10 µM for the first, < 1 µM for the second.

`CC1CN(C(=O)c2ccc(F)cc2)CC1c1nn2c(C3CCOCC3)ncc2c(=O)[nH]1` (single isomer, unassigned; (-)) [(−)-2-((3,4-trans)-1-(4-fluorobenzoyl)-4-methylpyrrolidin-3-yl)-7-(tetrahydro-2H-pyran-4-yl)imidazo[5,1-f][1,2,4]triazin-4(3H)-one] and `CC1CN(C(=O)c2ccncc2)CC1c1nn2c(C3CCOCC3)ncc2c(=O)[nH]1` (single isomer, unassigned; (-)) [(−)-2-((3,4-trans)-1-isonicotinoyl-4-methylpyrrolidin-3-yl)-7-(tetrahydro-2H-pyran-4-yl)imidazo[5,1-f][1,2,4]triazin-4(3H)-one] cannot be ordered by IC50: < 1 µM for the first, < 1 µM for the second.

Compared with `CC1CN(S(=O)(=O)c2ccc(F)cc2)CC1c1nn2c(C3CCOCC3)ncc2c(=O)[nH]1` (single isomer, unassigned; (-)) [(−)-2-((3,4-trans)-1-((4-fluorophenyl)sulfonyl)-4-methylpyrrolidin-3-yl)-7-(tetrahydro-2H-pyran-4-yl)imidazo[5,1-f][1,2,4]triazin-4(3H)-one], `CCS(=O)(=O)N1CC(C)C(c2nn3c(C4CCOCC4)ncc3c(=O)[nH]2)C1` (single isomer, unassigned; (-)) [(−)-2-((3,4-trans)-1-(ethylsulfonyl)-4-methylpyrrolidin-3-yl)-7-(tetrahydro-2H-pyran-4-yl)imidazo[5,1-f][1,2,4]triazin-4(3H)-one] is lower in IC50: 1 to 10 µM for the first, < 1 µM for the second. The second is the more potent here.

`CC1CN(Cc2ccc3nccn3n2)CC1c1nn2c(C3CCOCC3)ncc2c(=O)[nH]1` (single isomer, unassigned; (-)) [(−)-2-((3,4-trans)-1-(imidazo[1,2-b]pyridazin-6-ylmethyl)-4-methylpyrrolidin-3-yl)-7-(tetrahydro-2H-pyran-4-yl)imidazo[5,1-f][1,2,4]triazin-4(3H)-one] was tested, and the IC50 was < 1 µM.

same assay, conditions: read-out: Band (PDE9A2 IC50)

`CC1CN(Cc2cn3ccccc3n2)CC1c1nn2c(-c3cccc(F)c3)ncc2c(=O)[nH]1` (single isomer, unassigned; (+)) [(+)-7-(3-fluorophenyl)-2-((3,4-trans)-1-(imidazo[1,2-a]pyridin-2-ylmethyl)-4-methylpyrrolidin-3-yl)imidazo[5,1-f][1,2,4]triazin-4(3H)-one] and `CC1CN(Cc2ncccn2)CC1c1nn2c(-c3cccc(F)c3)ncc2c(=O)[nH]1` (single isomer, unassigned; (+)) [(+)-7-(3-fluorophenyl)-2-((3,4-trans)-4-methyl-1-(pyrimidin-2-ylmethyl)pyrrolidin-3-yl)imidazo[5,1-f][1,2,4]triazin-4(3H)-one] cannot be ordered by IC50: < 1 µM for the first, < 1 µM for the second.

First: CC1CN(Cc2ccccn2)CC1c1nn2c(-c3ccc(F)cc3)ncc2c(=O)[nH]1 (single isomer, unassigned; (+)) [(+)-7-(4-fluorophenyl)-2-((3,4-trans)-4-methyl-1-(pyridin-2-ylmethyl)pyrrolidin-3-yl)imidazo[5,1-f][1,2,4]triazin-4(3H)-one]
Second: CC1CN(Cc2cccnc2)CC1c1nn2c(-c3ccc(F)cc3)ncc2c(=O)[nH]1 (single isomer, unassigned; (+)) [(+)-7-(4-fluorophenyl)-2-((3,4-trans)-4-methyl-1-(pyridin-3-ylmethyl)pyrrolidin-3-yl)imidazo[5,1-f][1,2,4]triazin-4(3H)-one]
The IC50 of the first is higher: 1 to 10 µM for the first, < 1 µM for the second.
